Assay [1] addresses T1, PI3K1_N SH2 domain (Homo sapiens, UniProt P27986). The assay can be described thus: SPOT peptide array. Type of assay: binding. As to conditions: GST-SH2 0.25 μM, membrane-bound peptide, 1 mM DTT, LiCor read-out. A digest of the protocol:
(§1)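 Membrane-bound 11-mer phosphotyrosine peptides from insulin, IGF-1 and FGF receptors, their substrates and signaling proteins were probed with GST–SH2 fusions and detected with anti-GST and near-infrared secondary antibodies. Spots >3× the membrane mean scored positive and below the mean negative. GST-only "sticky" peptides were excluded.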

In another assay the target is Vav1 SH2 domain (Homo sapiens, UniProt P15498). Description: SPOT peptide array. Type of assay: binding. Conditions: GST-SH2 0.25 μM, membrane-bound peptide, 1 mM DTT, LiCor read-out. The method in brief:
as §1

The subject of assay [2] is Plcγ-C SH2 domain. Description: SPOT peptide array. It counts as binding. As to conditions: GST-SH2 0.25 μM, membrane-bound peptide, 1 mM DTT, LiCor read-out. The method in brief: as §1
The test system of assay [3] is Plcγ-N SH2 domain. The assay can be described thus: SPOT peptide array. Conditions: GST-SH2 0.25 μM, membrane-bound peptide, 1 mM DTT, LiCor read-out. It counts as binding. A digest of the protocol: as §1
The target in assay [4] is T1, PI3K1_N SH2 domain. Set-up: method as in PMID 8384875. Conditions: cited from earlier work.
Assay [5] addresses Plcγ-N SH2 domain. Also noted: method as in PMID 9422724. Conditions: tandem SH2 domains of PLCG1 against tandem phospho-peptide of PDGFRβ Y1009/Y1021; read-out: Affinity (KD); cited from earlier work.
Assay [6] deals with Plcγ-C SH2 domain. Also noted: method as in 2 sources, one per row (each row's own in cited_ref): ref 95-97 = [95]; PMID 9422724; doi:10.1074/jbc.273.2.729; Ottinger EA Botfield MC Shoelson SE Tandem SH2 domains confer high specificity in tyrosine kinase signaling J Biol Chem 1998 273 729 735 9422724 10.1074/jbc.273.2.729 || [96]; PMID 8181064; doi:10.1016/0092-8674(94)90160-0; Pascal SM Singer AU Gish G Yamazaki T Shoelson SE Pawson T Kay LE Forman-Kay JD Nuclear magnetic resonance structure of an SH2 domain of phospholipase C-gamma 1 complexed with a high affinity binding || [97]; PMID 15641795; doi:10.1021/bi048641k; Finerty PJ Jr Mittermaier AK Muhandiram R Kay LE Forman-Kay JD NMR dynamics-derived insights into the binding properties of a peptide interacting with an SH2 domain Biochemistry 2005 44 694 703 156417 ||| ref [98] = [98]; PMID 11526507; doi:10.1038/sj.onc.1204654; Malabarba MG Milia E Faretta M Zamponi R Pelicci PG Di Fiore PP A repertoire library that allows the selection of synthetic SH2s with altered binding specificities Oncogene 2001 20 5186 5194 11526507. As to conditions: tandem SH2 domains of PLCG1 against tandem phospho-peptide of PDGFRβ Y1009/Y1021; read-out: Affinity (KD); cited from earlier work.

A further assay deals with panel of 50 SH2 domains. Description: SPOT peptide array probed with each of 50 GST-SH2 domains. Type of assay: binding. As to conditions: SH2 domains with intensity >3X array mean; GST-SH2 0.25 μM, 1 mM DTT. The method in brief: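 Membrane SPOT arrays of 192 phosphotyrosine 11-mer peptides (four residues N-terminal, six C-terminal to pTyr) probed with GST-SH2 fusions, detected by anti-GST plus near-infrared secondary antibody. Spots >3-fold array mean scored positive, below mean negative, 1–3× indeterminate; peptides binding GST alone above mean in two of three trials flagged as sticky.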

In assay [7] the target is Lck SH2 domain. Set-up: method as in PMID 11278862. As to conditions: read-out: Affinity (KD); cited from earlier work.
Assay [8] addresses T2, Src SH2 domain (Homo sapiens, UniProt P12931). The assay can be described thus: SPOT peptide array. Type of assay: binding. As to conditions: GST-SH2 0.25 μM; for Array positive: membrane-bound peptide, 1 mM DTT, LiCor read-out. A digest of the protocol: as §1
For assay [9], the system named is Lck SH2 domain. Description: SPOT peptide array. Type of assay: binding. Conditions: GST-SH2 0.25 μM; for Array positive: membrane-bound peptide, 1 mM DTT, LiCor read-out.
The target of assay [10] is T2, Src SH2 domain. Set-up: method as in 2 sources, ref [19] = [19]; PMID 7680959; doi:10.1016/0092-8674(93)90404-e; Songyang Z Shoelson SE Chaudhuri M Gish G Pawson T Haser WG King F Roberts T Ratnofsky S Lechleider RJ SH2 domains recognize specific phosphopeptide sequences Cell 1993 72 767 778 7680959 10.1016/0092 ||| ref [119, 121] = [119]; PMID 9032297; doi:10.1128/mcb.17.3.1702; Schlaepfer DD Broome MA Hunter T Fibronectin-stimulated signaling from a focal adhesion kinase-c-Src complex: involvement of the Grb2, p130cas, and Nck adaptor proteins Mol Cell Biol 1997 17 1702 1713 || [121]; PMID 16245368; doi:10.1002/jmr.755; Nasertorabi F Tars K Becherer K Kodandapani R Liljas L Vuori K Ely KR Molecular basis for regulation of Src by the docking protein p130Cas J Mol Recognit 2006 19 30 38 16245368 10.1002/jmr.755. Conditions: read-out: Affinity (KD); cited from earlier work.

For assay [11], the target named is T3, Shc1 SH2 domain (Homo sapiens, UniProt P29353).
T3 sequence (P29353 488-579 limits assumed): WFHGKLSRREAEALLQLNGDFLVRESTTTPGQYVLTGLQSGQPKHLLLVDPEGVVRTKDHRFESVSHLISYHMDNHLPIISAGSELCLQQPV
Also noted: method as in PMID 7544002. As to conditions: read-out: Affinity (KD); cited from earlier work.

Assay [12] addresses T3, Shc1 SH2 domain. The assay can be described thus: SPOT peptide array. Type of assay: binding. As to conditions: GST-SH2 0.25 μM, membrane-bound peptide, 1 mM DTT, LiCor read-out. The method in brief: as §1
A further assay concerns the target Sh2d1b SH2 domain (Homo sapiens, UniProt O14796). Description: SPOT peptide array. It counts as binding. As to conditions: GST-SH2 0.25 μM, membrane-bound peptide, 1 mM DTT, LiCor read-out.
Assay [13] concerns Ptpn11 SH2 domain (N or C not specified). Description: SPOT peptide array. Type of assay: binding. As to conditions: GST-SH2 0.25 μM, membrane-bound peptide, 1 mM DTT, LiCor read-out. A digest of the protocol: as §1
Another assay deals with T4, Ptpn11_N SH2 domain (Homo sapiens, UniProt Q06124).
T4 sequence (Q06124 6-102 limits assumed): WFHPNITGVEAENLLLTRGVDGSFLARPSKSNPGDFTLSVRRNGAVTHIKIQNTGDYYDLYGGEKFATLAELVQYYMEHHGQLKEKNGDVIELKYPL
The assay can be described thus: SPOT peptide array. It counts as binding. Conditions: spot intensity as factor of array mean; GST-SH2 0.25 μM. A digest of the protocol: as §1

The subject of another assay is Ptpn11_C SH2 domain. Description: SPOT peptide array. It counts as binding. Conditions: spot intensity as factor of array mean; GST-SH2 0.25 μM. A digest of the protocol:
as §1

The target of the next assay is Nck1 SH2 domain (Homo sapiens, UniProt P16333). The assay can be described thus: SPOT peptide array. Type of assay: binding. Conditions: GST-SH2 0.25 μM, membrane-bound peptide, 1 mM DTT, LiCor read-out. A digest of the protocol: as §1
A further assay has as its system Bmx SH2 domain. Description: SPOT peptide array. Type of assay: binding. Conditions: GST-SH2 0.25 μM, membrane-bound peptide, 1 mM DTT, LiCor read-out. A digest of the protocol:
as §1

The mark [14] stands for this setting: spot intensity as factor of array mean.

The values below come from PMC3514216, “SRC Homology 2 Domain Binding Sites in Insulin, IGF-1 and FGF receptor mediated signaling networks reveal an extensive potential interactome” (Cell Communication and Signaling : CCS, 2012).

T1 sequence (P27986 333-428 limits assumed): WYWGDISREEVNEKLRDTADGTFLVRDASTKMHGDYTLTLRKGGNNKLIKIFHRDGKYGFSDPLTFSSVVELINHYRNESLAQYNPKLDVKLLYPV
Chain of Sh2d1b SH2 domain (O14796 5-101 limits assumed): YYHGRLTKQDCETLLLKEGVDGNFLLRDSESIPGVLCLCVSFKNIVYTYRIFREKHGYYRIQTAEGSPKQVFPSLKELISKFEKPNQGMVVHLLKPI
Chain of Vav1 SH2 domain (P15498 671-765 limits assumed): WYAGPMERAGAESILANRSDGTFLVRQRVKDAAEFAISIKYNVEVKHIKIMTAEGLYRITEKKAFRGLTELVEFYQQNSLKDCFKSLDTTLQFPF

Consider “ADNDpYIIPLPD [11-mer phosphotyrosine control peptide, PDGFRb (Y1021), reference compound]”, for which the Array positive result on PI3K1_N SH2 domain [1] is recorded as “No (Peptide spots with average intensity values between 1X-3X the array mean were defined as ‘indeterminate’. Those with intensities below 1X mean were defined as array negative)”; on Vav1 SH2 domain, “Yes (Array-positive binding was ascribed to interactions with intensities greater than three times the array mean)”; in the assay on Plcγ-C SH2 domain [2] it was “Yes (Array-positive binding was ascribed to interactions with intensities greater than three times the array mean)”; with Plcγ-N SH2 domain [3], “Yes (Array-positive binding was ascribed to interactions with intensities greater than three times the array mean)”. In addition, the “Relative affinity (ID50)” value on PI3K1_N SH2 domain [4] is 45000 nM. Moreover, the Kd at Plcγ-N SH2 domain [5] and on Plcγ-C SH2 domain [6] was 0.65 to 2.2 nM throughout. For the same substance, in the assay on panel of 50 SH2 domains, the “Other SH2 domains bound (additional array-positive SH2 domains)” value (“Other SH2 domains bound” below) is reported as “Brk”.
On to “AEPQpYEEIPIY [11-mer phosphotyrosine control peptide, Middle T-antigen (Y323), reference compound]”, for which the equilibrium dissociation constant (Kd) was 1300 ± 200 nM at Lck SH2 domain [7] and 550 to 800 nM at Src SH2 domain [10]. Further, the Array positive entry on Src SH2 domain [8] and with Lck SH2 domain [9] was “Yes (Array-positive binding was ascribed to interactions with intensities greater than three times the array mean)” throughout. In addition, the “Other SH2 domains bound” value with panel of 50 SH2 domains is given as “Blk, Brk, Fer, Fgr, Hck, Lyn, Nck1, Shc1, Yes”.
In the case of “HDGLpYQGLSTA (HDGLYQGLSTA) [11-mer phosphotyrosine control peptide, CD150 (Y142)]”, the Kd with Shc1 SH2 domain [11] was 50000 nM.
As to “HDGLpYQGLSTA [11-mer phosphotyrosine control peptide, CD150 (Y142)]”, on Shc1 SH2 domain [12], the Array positive entry is listed as “No (Peptide spots with average intensity values between 1X-3X the array mean were defined as ‘indeterminate’. Those with intensities below 1X mean were defined as array negative)”.
“SLTIpYAQVQKA [11-mer phosphotyrosine control peptide, SLAM (Y280)]”: the Array positive result on Sh2d1b SH2 domain is given as “Yes (Array-positive binding was ascribed to interactions with intensities greater than three times the array mean)”.
Consider “STVEpYSTVVHS [11-mer phosphotyrosine control peptide, gp130/IL-6 Receptor (Y759), reference compound]”, for which the Array positive entry in [13] is recorded as “No (Peptide spots with average intensity values between 1X-3X the array mean were defined as ‘indeterminate’. Those with intensities below 1X mean were defined as array negative)”. Besides, the “Peptide array intensity (X mean)” value on Ptpn11_N SH2 domain is reported as 1.33 X Mean; in the assay on Ptpn11_C SH2 domain it was 2.8 X Mean. Also, the “Other SH2 domains bound” value in the assay on panel of 50 SH2 domains is “PTPN11_N is 1.33X Mean, PTPN11_C is 2.8X Mean Brdg1, Brk, Sh2d1b”.
As to “WMEDpYDYVHLQ [11-mer phosphotyrosine peptide, p130Cas (Y664)]”, the Array positive entry was “Yes (Array-positive binding was ascribed to interactions with intensities greater than three times the array mean)” on Nck1 SH2 domain, “Yes (Array-positive binding was ascribed to interactions with intensities greater than three times the array mean)” with Bmx SH2 domain, “No (Peptide spots with average intensity values between 1X-3X the array mean were defined as ‘indeterminate’. Those with intensities below 1X mean were defined as array negative)” at Src SH2 domain [8] and “No (Peptide spots with average intensity values between 1X-3X the array mean were defined as ‘indeterminate’. Those with intensities below 1X mean were defined as array negative)” in the assay with Lck SH2 domain [9]. Besides, the results for the “Peptide array intensity (X mean)” value on Src SH2 domain [8] (setting [14]) and in the assay on Lck SH2 domain [9] (setting [14]) were 2.45 X Mean and 2.03 X Mean, respectively. For the same substance, in the assay on panel of 50 SH2 domains, the “Other SH2 domains bound” value was “Bcar3, Brk, Crk, Crkl, Dapp1, Fer, Grb7, Matk, PI3K1_N, Rasa1_N, Rasa1_C, Sh3bp2 and Itk”. Besides, the Kd in the assay with Src SH2 domain [10] is 25 to 46 nM.
